Measurements as given in BindingDB's records for patent US10065950 (Japan Tobacco Inc, 2018).

Biological target: Gag-Pol polyprotein (Human immunodeficiency virus type 1 group M subtype B (isolate NY5), UniProt P12497)
Assay: HIV Integrase Inhibitory Assay
Conditions: 25 °C

Compared with `CC(C)N1C(=O)c2c(O)c(=O)c(-c3nnc(Cc4ccc(F)cc4)s3)cn2C[C@H]1C` [US10065950, Example 6], `COC[C@@H]1Cn2cc(-c3nnc(Cc4ccc(F)cc4)s3)c(=O)c(O)c2C(=O)N1C(C)C` [US10065950, Example 3] is 1.5-fold higher in IC50: 5.6 nM for the first, 8.5 nM for the second.

`COC[C@@H]1Cn2cc(-c3nnc(Cc4ccc(F)cc4)s3)c(=O)c(O)c2C(=O)N1CC1CC1` [US10065950, Example 10] and `CCOC[C@@H]1Cn2cc(-c3nnc(Cc4ccc(F)cc4)s3)c(=O)c(O)c2C(=O)N1CC1CC1` [US10065950, Example 11] are within 1.5-fold of each other in IC50: 8.8 nM for the first, 6.4 nM for the second.

`CCN1C(=O)c2c(O)c(=O)c(-c3nnc(Cc4ccc(F)cc4)s3)cn2C[C@H]1COC` [US10065950, Example 9] and `CCOC[C@@H]1Cn2cc(-c3nnc(Cc4ccc(F)cc4)s3)c(=O)c(O)c2C(=O)N1CC` [US10065950, Example 13] are within 1.5-fold of each other in IC50: 9.1 nM for the first, 6.4 nM for the second.

`CCN1C(=O)c2c(O)c(=O)c(-c3nnc(Cc4ccc(F)cc4)s3)cn2[C@@H](C)[C@H]1COC` [US10065950, Example 14] and `COC[C@H]1CN(C(C)C)C(=O)c2c(O)c(=O)c(-c3nnc(Cc4ccc(F)cc4)s3)cn21` [US10065950, Example 4] are the same in IC50: 10 nM for the first, 10 nM for the second.

Going from `CC(C)N1C[C@H](C)n2cc(-c3nnc(Cc4ccc(F)cc4)s3)c(=O)c(O)c2C1=O` [US10065950, Example 5] to `COCCOC[C@H]1CN(C(C)C)C(=O)c2c(O)c(=O)c(-c3nnc(Cc4ccc(F)cc4)s3)cn21` [US10065950, Example 15], the IC50 rises from 7.4 nM to 13 nM (1.8-fold). The first is the more potent here.

Compared with `CCOC[C@@H]1Cn2cc(-c3nnc(Cc4ccc(F)cc4)s3)c(=O)c(O)c2C(=O)N1C(C)C` [US10065950, Example 12], `COCCOC[C@H]1CN(C2CC2)C(=O)c2c(O)c(=O)c(-c3nnc(Cc4ccc(F)cc4)s3)cn21` [US10065950, Example 16] is 2.7-fold higher in IC50: 7.3 nM for the first, 20 nM for the second. The first is the more potent here.

With `CCN1C[C@](C)(C(=O)N2CCC2)n2cc(-c3ncc(Cc4ccc(F)cc4)s3)c(=O)c(O)c2C1=O` [US10065950, Example 17] the IC50 was 7.9 nM.
